Laboratory results as given in US20240239790A1, “7-Morpholino-1,6-Naphthyridin-5-yl Derivatives and Pharmaceutical Compositions Thereof Useful as DNA-PK Inhibitor” (adMare Therapeutics Society, priority 2021, published 2024).
Like-named read-outs stand apart in the source and are kept apart here.

Experiments:
[1] = system: pDNA-PK induction in HCT116 tumour spheroids; assay: Multicellular tumour spheroid + radiation, pDNA-PK (ser2056) inhibition, immunohistochemical endpoint, HCT116; assay type: cell-based; details: Homo sapiens, 20 Gy, 20% O2
Summary of the method: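 HCT116 spheroids (~0.5 mm) in MEM/10% FBS, 20% O2, 37° C., pre-incubated 1 h with compound (10 or 5 μM down to 3.5 nM), irradiated 20 Gy, then 2 h further with compound. Cryosections immunostained for pDNA-PK ser2056; EC50 is concentration halving radiation-induced pDNA-PK.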

[2] = Hepatocyte Stability Assay, human hepatocytes; assay type: in vitro ADME; details: for hepatocyte CLint at 1 uM: both sexes, cryopreserved hepatocytes, pH 7.3, human hepatocytes 0.7 million cells per mL, 1 uM compound; for Hepatocyte Stability Human % rem. 120 min: human hepatocytes
Experimental: (§1) Cryopreserved mouse hepatocytes were obtained from a pool of 10 or more male CD-1 mice. Cryopreserved human hepatocytes were obtained from a pool of 10 or more donors of mixed gender. Final hepatocyte density was 0.7 million viable cells per mL and test compound concentration was 1 uM with a maximum of 0.01% DMSO. Cryopreserved hepatocytes were thawed, washed, and resuspended in Krebs-Heinslet buffer (pH 7.3). The reaction was initiated by adding the test compound into cell suspension and incubated for 0, […], 1, 1.5, and 2 h, respectively, at 37° C./5% C02. The reaction was stopped by adding acetonitrile into the incubation mixture. Samples were then mixed, transferred completely to another 96-well plate, and centrifuged. Supernatants were used for HPLC-MS/MS analysis. […] Peak areas corresponding to the test compound were recorded.

[3] = Hepatocyte Stability Assay, mouse hepatocytes; assay type: in vitro ADME; details: for hepatocyte CLint at 1 uM: male, CD-1, cryopreserved hepatocytes, pH 7.3, mouse hepatocytes 0.7 million cells per mL, 1 uM compound; for Hepatocyte Stability Mouse % rem. 120 min: mouse hepatocytes
Experimental: as §1

[4] = Microsomal Stability Assay, mouse liver microsomes; assay type: in vitro ADME; details: for microsomal CLint at 0.1 uM: male, CD-1, pH 7.4, mouse liver microsomes 0.1 mg/mL, 0.1 uM compound; for Microsomal Stability Mouse % rem. 60 min: mouse liver microsomes
Experimental: Samples were then mixed and centrifuged. Supernatants were used for HPLC-MS/MS analysis. […] Peak areas corresponding to the test compound were recorded.

[5] = HCT-116, 2 hours following radiation, Example 9 Study 2, read-out: Spheroid Cell line: HCT116 Immunohistochemical endpoint pDNA-PK inhibition EC50
[6] = HCT-116, Spheroid, Cell Line: HCT115 (so in the source), 2 hours following radiation, Example 7, read-out: EC50, Immunohistochemical endpoint, pDNA-PK inhibition
[7] = HCT-116, 2 h, spheroids, Example 8, read-out: Cell line: HCT116 Immunohistochemical endpoint pDNA-PK inhibition EC50

| EC50 [1, 5] | EC50 [1, 6] | hepatocyte CLint at 1 uM [2] | Hepatocyte Stability Human % rem. 120 min [2] | hepatocyte CLint at 1 uM [3] | Hepatocyte Stability Mouse % rem. 120 min [3] | EC50 [1, 7] | microsomal CLint at 0.1 uM [4] | Microsomal Stability Mouse % rem. 60 min [4] | Structure (SMILES) |
| --- | --- | --- | --- | --- | --- | --- | --- | --- | --- |
| 500 to 1000 nM | 500 to 1000 nM | > 8.2 µL/min/1e6 cells | F (% remaining = 25-50%) | < 8.2 µL/min/1e6 cells | G (% remaining = 50-75%) |  |  |  | Cn1c(=O)n(C2CCOCC2)c2nc(N[C@H]3CC[C@@H](Oc4nc(N5CCOCC5)cc5ncccc45)CC3)ncc21 [Compound 96, 7-Methyl-2-(((1s,4s)-4-((7-morpholino-1,6-naphthyridin-5-yl)oxy)cyclohexyl)amino)-9-(tetrahydro-2H-pyran-4-yl)-7,9-dihydro-8H-purin-8-one] |
| 10 to 500 nM | 10 to 500 nM | > 8.2 µL/min/1e6 cells | F (% remaining = 25-50%) | < 8.2 µL/min/1e6 cells | G (% remaining = 50-75%) |  |  |  | O=C(Cn1c(=O)n(C2CCOCC2)c2nc(N[C@H]3CC[C@@H](Oc4nc(N5CCOCC5)cc5ncccc45)CC3)ncc21)N1CCC1 [Compound 99, 7-(2-(Azetidin-1-yl)-2-oxoethyl)-2-(((1s,4s)-4-((7-morpholino-1,6-naphthyridin-5-yl)oxy)cyclohexyl)amino)-9-(tetrahydro-2H-pyran-4-yl)-7,9-dihydro-8H-purin-8-one] |
| 10 to 500 nM | 10 to 500 nM | < 8.2 µL/min/1e6 cells | G (% remaining = 50-75%) | < 8.2 µL/min/1e6 cells | H (% remaining = 75-100%) |  |  |  | CN(C)C(=O)Cn1c(=O)n(C)c2nc(N[C@H]3CC[C@@H](Oc4nc(N5CCOCC5)cc5ncccc45)CC3)ncc21 [Compound 102, N,N-Dimethyl-2-(9-methyl-2-(((1s,4s)-4-((7-morpholino-1,6-naphthyridin-5-yl)oxy)cyclohexyl)amino)-8-oxo-8,9-dihydro-7H-purin-7-yl)acetamide] |
| 10000 to 100000 nM | 10000 to 100000 nM |  |  |  |  | 10000 to 100000 nM | < 116 µL/min/mg | H (% remaining = 75-100%) | CS(=O)(=O)NC(=O)c1cnc2cc(N3CCOCC3)nc(O[C@H]3CC[C@@H](n4ccnc4)CC3)c2c1 [Compound 175, 5-(((1s,4s)-4-(1H-imidazol-1-yl)cyclohexyl)oxy)-N-(methylsulfonyl)-7-morpholino-1,6-naphthyridine-3-carboxamide] |
| 1000 to 10000 nM | 1000 to 10000 nM | < 8.2 µL/min/1e6 cells | G (% remaining = 50-75%) | > 8.2 µL/min/1e6 cells | F (% remaining = 25-50%) |  |  |  | O=S(=O)(CC(F)F)Nc1cnc2cc(N3CCOCC3)nc(O[C@H]3CC[C@@H](Nc4ncccn4)CC3)c2c1 [Compound 193, 2,2-difluoro-N-(7-morpholino-5-(((1s,4s)-4-(pyrimidin-2-ylamino)cyclohexyl)oxy)-1,6-naphthyridin-3-yl)ethane-1-sulfonamide] |
| 10 to 500 nM | 10 to 500 nM | > 8.2 µL/min/1e6 cells | E (% remaining = 0-25%) | > 8.2 µL/min/1e6 cells | E (% remaining = 0-25%) |  |  |  | Cn1c(=O)[nH]c2cnc(N[C@H]3CC[C@@H](Oc4nc(N5CCOCC5)cc5ncccc45)CC3)nc21 [Compound 100, 9-Methyl-2-(((1s,4s)-4-((7-morpholino-1,6-naphthyridin-5-yl)oxy)cyclohexyl)amino)-7,9-dihydro-8H-purin-8-one] |
| 10 to 500 nM | 10 to 500 nM | < 8.2 µL/min/1e6 cells | G (% remaining = 50-75%) | < 8.2 µL/min/1e6 cells | G (% remaining = 50-75%) |  |  |  | CS(=O)(=O)c1cnc2cc(N3CCOCC3)nc(O[C@H]3CC[C@@H](Nc4ncnc5ccoc45)CC3)c2c1 [Compound 204b, N-((1s,4s)-4-((3-(methylsulfonyl)-7-morpholino-1,6-naphthyridin-5-yl)oxy)cyclohexyl)furo[3,2-d]pyrimidin-4-amine] |
| 1000 to 10000 nM | 1000 to 10000 nM | < 8.2 µL/min/1e6 cells | H (% remaining = 75-100%) | < 8.2 µL/min/1e6 cells | H (% remaining = 75-100%) |  |  |  | CS(=O)(=O)c1cnc2cc(N3CCOCC3)nc(O[C@H]3CC[C@@H](Nc4ncc(OCC(=O)N5CCOCC5)cn4)CC3)c2c1 [Compound 204a, 2-((2-(((1s,4s)-4-((3-(methylsulfonyl)-7-morpholino-1,6-naphthyridin-5-yl)oxy)cyclohexyl)amino)pyrimidin-5-yl)oxy)-1-morpholinoethan-1-one] |
| 1000 to 10000 nM | 1000 to 10000 nM |  |  | > 8.2 µL/min/1e6 cells | F (% remaining = 25-50%) | 1000 to 10000 nM | < 116 µL/min/mg | G (% remaining = 50-75%) | O=C(NO)c1cnc2cc(N3CCOCC3)nc(O[C@H]3CC[C@@H](n4ccnc4)CC3)c2c1 [Compound 172, 5-(((1s,4s)-4-(1H-imidazol-1-yl)cyclohexyl)oxy)-N-hydroxy-7-morpholino-1,6-naphthyridine-3-carboxamide] |
| 1000 to 10000 nM | 1000 to 10000 nM | < 8.2 µL/min/1e6 cells | H (% remaining = 75-100%) | < 8.2 µL/min/1e6 cells | G (% remaining = 50-75%) |  |  |  | CS(=O)(=O)c1cnc2cc(N3CCOCC3)nc(O[C@H]3CC[C@@H](NC(=O)c4ncco4)CC3)c2c1 [Compound 204c, N-((1s,4s)-4-((3-(methylsulfonyl)-7-morpholino-1,6-naphthyridin-5-yl)oxy)cyclohexyl)oxazole-2-carboxamide] |
| 1000 to 10000 nM | 1000 to 10000 nM | < 8.2 µL/min/1e6 cells | G (% remaining = 50-75%) | < 8.2 µL/min/1e6 cells | G (% remaining = 50-75%) |  |  |  | CS(=O)(=O)c1cnc2cc(N3CCOCC3)nc(O[C@H]3CC[C@@H](Nc4ncccn4)CC3)c2c1 [Compound 200b, N-((1s,4s)-4-((3-(methylsulfonyl)-7-morpholino-1,6-naphthyridin-5-yl)oxy)cyclohexyl)pyrimidin-2-amine] |
| 10 to 500 nM | 10 to 500 nM | > 8.2 µL/min/1e6 cells | F (% remaining = 25-50%) | > 8.2 µL/min/1e6 cells | F (% remaining = 25-50%) |  |  |  | O=c1[nH]c2cnc(N[C@H]3CC[C@@H](Oc4nc(N5CCOCC5)cc5ncccc45)CC3)nc2n1C1CCOCC1 [Compound 95, 2-(((1s,4s)-4-((7-Morpholino-1,6-naphthyridin-5-yl)oxy)cyclohexyl)amino)-9-(tetrahydro-2H-pyran-4-yl)-7,9-dihydro-8H-purin-8-one] |
| 10000 to 100000 nM | 10000 to 100000 nM |  |  | < 8.2 µL/min/1e6 cells | H (% remaining = 75-100%) | 10000 to 100000 nM | < 116 µL/min/mg | H (% remaining = 75-100%) | O=C(O)c1cnc2cc(N3CCOCC3)nc(O[C@H]3CC[C@@H](n4ccnc4)CC3)c2c1 [Compound 165, 5-(((1s,4s)-4-(1H-imidazol-1-yl)cyclohexyl)oxy)-7-morpholino-1,6-naphthyridine-3-carboxylic acid] |
